# ChEMBL document CHEMBL1152952, “Synthesis and pharmacological evaluation of 1,2,3,4-tetrahydropyrazino[1,2-a]indole and 2-[(phenylmethylamino)methyl]-1H-indole analogues as novel melatoninergic ligands” (Bioorg Med Chem, 2009)
# Activity calls are given as the source filed them. The calls are words filed in the database; no cut-off is given here.
# Tests used:
# [1] = target: T1, Melatonin receptor type 1B (Homo sapiens, UniProt P49286); experiment: Displacement of 2-[125I]iodomelatonin from human MT2 receptor expressed in CHO cells by gamma counting; type: cell-based
# T1 sequence (P49286 whole entry): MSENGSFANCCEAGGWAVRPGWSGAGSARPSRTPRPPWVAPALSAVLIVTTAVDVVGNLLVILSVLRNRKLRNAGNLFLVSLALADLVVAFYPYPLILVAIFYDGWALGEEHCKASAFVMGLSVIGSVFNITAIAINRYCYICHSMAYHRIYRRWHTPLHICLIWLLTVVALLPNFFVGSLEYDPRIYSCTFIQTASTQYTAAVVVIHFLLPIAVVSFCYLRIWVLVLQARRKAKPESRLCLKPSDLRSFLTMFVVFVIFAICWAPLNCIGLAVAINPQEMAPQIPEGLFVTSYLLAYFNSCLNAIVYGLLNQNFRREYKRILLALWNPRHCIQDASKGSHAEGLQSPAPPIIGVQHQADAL
# [2] = target: T2, Melatonin receptor type 1A (Homo sapiens, UniProt P48039); experiment: Displacement of 2-[125I]iodomelatonin from human MT1 receptor expressed in CHO cells by gamma counting; type: cell-based
# Homo sapiens = species on record: Homo sapiens; experiment: Selectivity ratio of Ki for human MT1 receptor to Ki for human MT2 receptor
# [3] = target: T3, Melatonin receptor type 1B (Homo sapiens) (UniProt P49286); experiment: Intrinsic activity at human MT2 receptor expressed in CHO cells assessed as inhibition of forskolin-induced cAMP accumulation at 10 nM; type: functional, cell-based
# T3 sequence (whole entry): T1 sequence (P49286 whole entry)
# [4] = target: T2, Melatonin receptor type 1A; experiment: Agonist activity at human MT1 receptor expressed in CHO cells assessed as inhibition of forskolin-induced cAMP accumulation at 1 uM; type: functional, cell-based
# [5] = target: T2, Melatonin receptor type 1A; experiment: Agonist activity at human MT1 receptor expressed in CHO cells assessed as inhibition of forskolin-induced cAMP accumulation at 10 nM; type: functional, cell-based
# [6] = target: T2, Melatonin receptor type 1A; experiment: Agonist activity at human MT1 receptor expressed in CHO cells assessed as inhibition of forskolin-induced cAMP accumulation; type: functional, cell-based
# T2 sequence (P48039 whole entry): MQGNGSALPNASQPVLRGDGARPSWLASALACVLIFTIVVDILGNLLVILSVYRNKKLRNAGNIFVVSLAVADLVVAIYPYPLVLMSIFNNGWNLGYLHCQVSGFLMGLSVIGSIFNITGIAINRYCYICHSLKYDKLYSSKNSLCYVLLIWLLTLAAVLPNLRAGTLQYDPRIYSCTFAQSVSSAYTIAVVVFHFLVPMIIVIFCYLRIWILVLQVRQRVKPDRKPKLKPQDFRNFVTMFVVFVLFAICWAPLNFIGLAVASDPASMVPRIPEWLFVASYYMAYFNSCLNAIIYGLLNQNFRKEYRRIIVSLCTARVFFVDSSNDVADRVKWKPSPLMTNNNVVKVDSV
Ki ([1]; read-out: pKi (converted)) [nM],Ki ([2]; read-out: pKi (converted)) [nM],Ratio Ki (Homo sapiens),SMILES,other results
42.7,257,6,COc1ccc2[nH]c(CN(C)c3ccc(Cl)cc3)c(CCNC(C)=O)c2c1,
224,1000,,CCN(C)Cc1[nH]c2ccc(OC)cc2c1CCNC(C)=O,
891,5620,6,COc1ccc2c(c1)c(CCNC(C)=O)c1n2CCCN(C)C1,
,,,COc1ccc(N(C)Cc2[nH]c3ccc(OC)cc3c2CCNC(C)=O)cc1,Ki ([1]; read-out: Ki): 9 nM; Ki ([2]; read-out: Ki): 8 nM
85.1,257,,CCCC(=O)NCCc1c2n(c3ccccc13)CCN(C)C2,
2.29,15.5,8,COc1ccc2[nH]c(CN(C)c3ccccc3)c(CCNC(C)=O)c2c1,Activity [3]: inactive; inhibition [4]: 60%
7.76,11.7,,COc1ccc2c(c1)c(CCNC(C)=O)c1n2CCN(C)C1,
6.92,6.61,,CCCC(=O)NCCc1c2n(c3ccc(OC)cc13)CCN(C)C2,inhibition [5]: 12%; Activity [3]: inactive; IC50 [6]: 3.14 nM
661,1290,,COc1ccc2[nH]c(CN(C)Cc3ccccc3)c(CCNC(C)=O)c2c1,
,,,COc1ccc2[nH]c(CN(C)c3ccc(C(F)(F)F)cc3)c(CCNC(C)=O)c2c1,Ki ([1]; read-out: Ki): 63 nM; Ki ([2]; read-out: Ki): 111 nM
,,4.4,COc1ccc2c(c1)CC1Cn3c(c(CCNC(C)=O)c4cc(OC)ccc43)CN21 (centres undefined),
